Measured values reported in ChEMBL document CHEMBL6115010, “Targeting glioma with heteroaromatic alkaloids: A review of potential therapeutics” (Bioorg Med Chem, 2025).
≈ marks a conversion by molar mass, not a printed value.

What was measured:
[1] = Cytotoxicity against human CHG-5 cells assessed as reduction in cell viability incubated for 48 hrs by MTT assay; type: functional, cell-based; settings: CHG-5, 48 h
CCF-STTG1 [2] = assay: Cytotoxicity against human CCF-STTG1 cells assessed as reduction in cell viability incubated for 48 hrs by MTT assay; type: functional, cell-based; settings: CCF-STTG1, 48 h
[3] = Cytotoxicity against human SHG-44 cells assessed as reduction in cell viability incubated for 48 hrs by MTT assay; type: functional, cell-based; settings: SHG-44, 48 h
U-251 [4] = assay: Cytotoxicity against human U-251MG cells assessed as reduction in cell viability incubated for 48 hrs by MTT assay; type: functional, cell-based; settings: U-251, 48 h
U-87 MG [5] = assay: Antiproliferative activity against human U-87 MG cells assessed as reduction in cell viability at 100 uM incubated for 72 hrs by Prestoblue-reagent based assay relative to control; type: functional, U-87MG ATCC
H4 = assay: Antiproliferative activity against human H4 cells assessed as reduction in cell viability incubated for 72 hrs by Prestoblue-reagent based assay; type: functional; settings: H4, 72 h
[6] = Cytotoxicity against human U87MG.deltaEGFR cells by resazurin dye based assay; type: functional, cell-based
U-87 MG [7] = assay: Cytotoxicity against human U-87 MG cells by resazurin dye based assay; type: functional, cell-based, U-87MG ATCC
CCF-STTG1 [8] = assay: Cytotoxicity against human CCF-STTG1 cells assessed as reduction in cell viability incubated for 24 hrs by MTT assay; type: functional, cell-based; settings: CCF-STTG1, 24 h
[9] = Cytotoxicity against human CHG-5 cells assessed as reduction in cell viability incubated for 24 hrs by MTT assay; type: functional, cell-based; settings: CHG-5, 24 h
[10] = Cytotoxicity against human SHG-44 cells assessed as reduction in cell viability incubated for 24 hrs by MTT assay; type: functional, cell-based; settings: SHG-44, 24 h
U-251 [11] = assay: Cytotoxicity against human U-251MG cells assessed as reduction in cell viability incubated for 24 hrs by MTT assay; type: functional, cell-based; settings: U-251, 24 h
SH-SY5Y = assay: Cytotoxicity against human SH-SY5Y cells; type: functional, cell-based
SF-268 [12] = assay: Cytotoxicity against human SF-268 cells assessed as reduction in cell viability incubated for 72 hrs by SRB assay; type: functional, cell-based; settings: SF-268, 72 h
CCF-STTG1 [13] = assay: Cytotoxicity against human CCF-STTG1 cells assessed as reduction in cell growth incubated for 24 hrs by MTT assay; type: functional, cell-based; settings: CCF-STTG1, 24 h
SF-268 [14] = assay: Antiproliferative activity against human SF-268 cells; type: functional, cell-based
GAMG = assay: Antiproliferative activity against human GAMG cells assessed as reduction in cell viability incubated for 48 hrs by MTS reagent based assay; type: functional
SW1088 = assay: Cytotoxicity against human SW1088 cells assessed as reduction in cell growth incubated for 24 hrs by MTT colorimetric assay; type: functional, cell-based; settings: SW1088, 24 h
[15] = Cytotoxicity against human U373 MG cells assessed as reduction in cell growth incubated for 24 hrs by MTT colorimetric assay; type: functional, cell-based, U-373MG ATCC
[16] = Toxicity in ip dosed B6D2F1 mouse assessed as maximum tolerated dose measured after 28 days; type: organism-based; settings: in vivo, time 28 day
[17] = Cytotoxicity against human GSC-3 cells assessed as reduction in cell viability incubated for 72 hrs by MTS assay; type: functional, cell-based; settings: GSC-3, 72 h
Hs68 = assay: Growth inhibition of human Hs68 cells measured after 72 hrs by MTT assay; type: functional
[18] = Growth inhibition of human U373 MG cells measured after 72 hrs by MTT assay; type: functional, U-373MG ATCC
U-87 MG [19] = assay: Growth inhibition of human U-87 MG cells measured after 72 hrs by MTT assay; type: functional, U-87MG ATCC

## O[C@H]1[C@H]2c3cc4c(cc3C=[N+]3CCC(=C[C@@H]1O)[C@H]23)OCO4
[1]
  IC50: 10.2 µM
CCF-STTG1 [2]
  IC50: 10.3 µM
[3]
  IC50: 9.4 µM
U-251 [4]
  IC50: 11.8 µM

## COc1ccc2c3c([nH]c2c1)C(C)=NCC3 [HARMALINE]
U-87 MG [5]
  inhibition at 100 µM: 14%
H4
  IC50: 19.6 µM

## COc1cc(OC)c2c(=O)c3ccccc3n(C)c2c1
[6]
  IC50: 8.88 µM
U-87 MG [7]
  IC50: 17.6 µM

## C/C=C1\C2C[C@H]3C4=Nc5ccccc5[C@]45C[C@@H](C2[C@H]5OC(C)=O)[N+]3([O-])[C@H]1C (stereo partly drawn)
CCF-STTG1 [8]
  IC50: 16.7 µM
[9]
  IC50: 15.8 µM
[10]
  IC50: 17.4 µM
U-251 [11]
  IC50: 14.9 µM

## CN1C(=O)C(=O)NC[C@@H]1CNc1ccc(C(=O)O)cc1
SH-SY5Y
  IC50: 54.3 µM

## N#Cc1cnc2ccccc2c1O
SH-SY5Y
  IC50: 66.8 µM

## CC(=O)O[C@@H]1C2C3C[C@H]4C5=Nc6ccccc6[C@]51C[C@@H]2[N+]4([O-])[C@@H](C)[C@@H]3C=O (stereo partly drawn)
CCF-STTG1 [8]
  IC50: 12.3 µM
[9]
  IC50: 12.9 µM
[10]
  IC50: 11.8 µM
U-251 [11]
  IC50: 12.3 µM

## C/C=C(\C)[C@H](O)[C@H](C)/C=C(C)/C=C/C/C(C)=C/Cc1nc(OC)c(OC)c(O)c1C [PIERICIDIN A]
SF-268 [12]
  IC50: 68.1 µM

## CC/C=C(\C)[C@H](O)[C@H](C)/C=C(C)/C=C(\C)C/C(C)=C/Cc1nc(OC)c(OC)c(O)c1C
SF-268 [12]
  IC50: 45.9 µM

## CC1=NCCc2c1[nH]c1cc(O)ccc21 [HARMALOL]
U-87 MG [5]
  inhibition at 100 µM: 37%
H4
  IC50: 23.7 µM

## COC(=O)N1CCc2cc(O)c(OC)c3c4c(cc1c23)C(=O)C=C(OC)C4=O
[1]
  IC50: 10.8 µM
CCF-STTG1 [2]
  IC50: 9.2 µM
[3]
  IC50: 10.8 µM
U-251 [4]
  IC50: 11.3 µM

## COc1cc2c(cc1O)C(=O)O[C@@H]1CC=C3CC[N+](C)([O-])[C@H]3[C@H]21 (stereo partly drawn)
CCF-STTG1 [13]
  IC50: 93 µM

## CC(C)=CC[C@]12C/C=C(/C)Oc3cccc(CO)c3/C(N)=C(/C(=O)C=C1C)C2=O
SF-268 [14]
  IC50: 17.9 µM

## CC(=O)O[C@@H]1C2C3C[C@H]4C5=Nc6ccccc6[C@]51C[C@@H]2[N+]4([O-])[C@@H](C)[C@@H]3C(=O)O (stereo partly drawn)
CCF-STTG1 [8]
  IC50: 11.4 µM
[9]
  IC50: 12.1 µM
[10]
  IC50: 9.2 µM
U-251 [11]
  IC50: 9.7 µM

## Cc1cc2[nH]c(=O)c(=O)n(CC(O)C(O)C(O)CO)c2cc1C (stereo not drawn)
SH-SY5Y
  IC50: 71.2 µM

## CC[C@]1(O)C[C@H]2CN(CCc3c([nH]c4ccccc34)[C@@](C(=O)OC)(c3cc4c(cc3OC)N(C=O)[C@H]3[C@@](O)(C(=O)OC)[C@H](OC(C)=O)[C@]5(CC)C=CCN6CC[C@]43[C@@H]65)C2)C1 [VINCRISTINE]
GAMG
  IC50: 30.4 µM

## COc1cc2c(cc1O)C(=O)O[C@H]1[C@@H]2[C@H]2C(=C[C@@H]1O)CC[N+]2(C)[O-] (stereo partly drawn)
CCF-STTG1 [13]
  IC50: 83.2 µM

## CC1=NCCc2c1[nH]c1ccccc21
U-87 MG [5]
  inhibition at 100 µM: 30%
H4
  IC50: 33.5 µM

## C/C=C(\C)[C@H](O)[C@H](C)/C=C(C)/C=C(\C)C/C(C)=C/Cc1nc(OC)c(OC)c(O)c1C
SF-268 [12]
  IC50: 30.2 µM

## C[C@@H]1CC[C@H]2C(C)(C)[C@H](O)CC[C@]2(C)[C@@]12Cc1c(O)cc3c(c1O2)CNC3=O
SF-268 [14]
  IC50: 67.2 µM

## O=C1c2cccnc2-c2nccc3c2c1nc1ccccc13 [ASCIDIDEMIN]
SW1088
  IC50: 0.6 µM
[15]
  IC50: 0.5 µM
[16]
  MTD at 672 h: 40 mg/kg

## COc1cc2c(c(Oc3ccc(CO)cc3)c1OC)C[C@H]1c3c(cc(OC)c(OC)c3-2)CCN1C
[17]
  IC50: 15.2 µg/mL (≈ 31.9 µM)

## O=P1(N(CCCl)CCCl)NCCCO1 (stereo not drawn) [CYCLOPHOSPHAMIDE ANHYDROUS]
GAMG
  IC50: 50.9 µM

## CC(=O)O[C@H]1c2cc3c(cc2[C@]24C=C[C@H](O)C[C@H]2N1C[C@H]4O)OCO3
[1]
  IC50: 29.4 µM
CCF-STTG1 [2]
  IC50: 29.4 µM
[3]
  IC50: 28.3 µM
U-251 [4]
  IC50: 15.8 µM

## CO[C@@H]1C=C[C@@]23c4cc5c(cc4C(C)O[C@H]2CN(C)[C@H]3C1)OCO5 (stereo partly drawn)
Hs68
  GI50: 51 µM
[18]
  GI50: 1 µM
U-87 MG [19]
  GI50: 28 µM

## C/C=C(\C)[C@H](O)[C@H](C)/C=C(C)/C=C(\C)C/C(C)=C/Cc1nc(OC)c(OC)c(OC)c1C
SF-268 [12]
  IC50: 10 µM

## COc1ccc2c3c([nH]c2c1)[C@@H](C)NCC3
U-87 MG [5]
  inhibition at 100 µM: 38%
